Experimental data published in ChEMBL document CHEMBL1132113, “Inhibitors of efflux pumps in Pseudomonas aeruginosa potentiate the activity of the fluoroquinolone antibacterial levofloxacin” (1999).
≈ marks a conversion by molar mass, not a printed value. Square brackets hold non-standard residues; d marks the D form. Peptide text beside a SMILES is read from it. * marks the point of attachment. Orn = NCCC[C@H](N)C(=O)O; βNA = c1ccc2cc(N*)ccc2c1

Experiments:
[1] = test system: Pseudomonas aeruginosa; experiment: Minimum Inhibitory concentration required to inhibit the growth of Pseudomonas aeruginosa (strain PAM 1032); format: functional
[2] = test system: Pseudomonas aeruginosa; experiment: Minimum Inhibitory concentration required to reduce the MIC of levofloxacin by 8-fold against PAM 1032; format: functional
[3] = (§1) Volume of synergy by MacSynergy II 3-D analysis.
[4] = test system: Pseudomonas aeruginosa; experiment: Minimum Inhibitory concentration required to inhibit the growth of Pseudomonas aeruginosa (strain PAM 1032).; format: functional
[5] = test system: Pseudomonas aeruginosa; experiment: as §1; format: functional
[6] = test system: Pseudomonas aeruginosa; experiment: Minimum inhibitory concentration of Levofloxacin in presence at a concentration of 5 ug/mL against PAM 1032; format: functional
[7] = test system: Pseudomonas aeruginosa; experiment: Minimum inhibitory concentration of Levofloxacin in presence at a concentration of 5 ug/mL against PAM 1034; format: functional
[8] = test system: Pseudomonas aeruginosa; experiment: Minimum inhibitory concentration of Levofloxacin in presence at a concentration of 50 ug/mL against PAM 1033; format: functional
[9] = test system: Pseudomonas aeruginosa; experiment: Minimum inhibitory concentration of Levofloxacin in presence at a concentration of 0 ug/mL against PAM 1032; format: functional
[10] = test system: Pseudomonas aeruginosa; experiment: Minimum inhibitory concentration of Levofloxacin in presence at a concentration of 0 ug/mL against PAM 1033; format: functional
[11] = test system: Pseudomonas aeruginosa; experiment: Minimum inhibitory concentration of Levofloxacin in presence at a concentration of 0 ug/mL against PAM 1034; format: functional
[12] = test system: Pseudomonas aeruginosa; experiment: Minimum inhibitory concentration of Levofloxacin in presence at a concentration of 1.25 ug/mL against PAM 1032; format: functional
[13] = test system: Pseudomonas aeruginosa; experiment: Minimum inhibitory concentration of Levofloxacin in presence at a concentration of 1.25 ug/mL against PAM 1033; format: functional
[14] = test system: Pseudomonas aeruginosa; experiment: Minimum inhibitory concentration of Levofloxacin in presence at a concentration of 1.25 ug/mL against PAM 1034; format: functional
[15] = test system: Pseudomonas aeruginosa; experiment: Minimum inhibitory concentration of Levofloxacin in presence at a concentration of 10 ug/mL against PAM 1032; format: functional
[16] = test system: Pseudomonas aeruginosa; experiment: Minimum inhibitory concentration of Levofloxacin in presence at a concentration of 10 ug/mL against PAM 1033; format: functional
[17] = test system: Pseudomonas aeruginosa; experiment: Minimum inhibitory concentration of Levofloxacin in presence at a concentration of 10 ug/mL against PAM 1034; format: functional
[18] = test system: Pseudomonas aeruginosa; experiment: Minimum inhibitory concentration of Levofloxacin in presence at a concentration of 2.5 ug/mL against PAM 1032; format: functional
[19] = test system: Pseudomonas aeruginosa; experiment: Minimum inhibitory concentration of Levofloxacin in presence at a concentration of 2.5 ug/mL against PAM 1034; format: functional
[20] = test system: Pseudomonas aeruginosa; experiment: Minimum inhibitory concentration of Levofloxacin in presence at a concentration of 2.50 ug/mL against PAM 1033; format: functional
[21] = test system: Pseudomonas aeruginosa; experiment: Minimum inhibitory concentration of Levofloxacin in presence at a concentration of 20 ug/mL against PAM 1032; format: functional
[22] = test system: Pseudomonas aeruginosa; experiment: Minimum inhibitory concentration of Levofloxacin in presence at a concentration of 20 ug/mL against PAM 1033; format: functional
[23] = test system: Pseudomonas aeruginosa; experiment: Minimum inhibitory concentration of Levofloxacin in presence at a concentration of 20 ug/mL against PAM 1034; format: functional
[24] = test system: Pseudomonas aeruginosa; experiment: Minimum inhibitory concentration of Levofloxacin in presence at a concentration of 40 ug/mL against PAM 1032; format: functional
[25] = test system: Pseudomonas aeruginosa; experiment: Minimum inhibitory concentration of Levofloxacin in presence at a concentration of 40 ug/mL against PAM 1033; format: functional
[26] = test system: Pseudomonas aeruginosa; experiment: Minimum inhibitory concentration of Levofloxacin in presence at a concentration of 40 ug/mL against PAM 1034; format: functional
[27] = test system: Pseudomonas aeruginosa; experiment: Minimum Inhibitory concentration required to reduce the MIC of levofloxacin by 8-fold against PAM 1033; format: functional
[28] = test system: Pseudomonas aeruginosa; experiment: Minimum Inhibitory concentration required to reduce the MIC of levofloxacin by 8-fold against PAM 1034; format: functional
[29] = Volume of synergy by MacSynergy II 3-D analysis
[30] = test system: Pseudomonas aeruginosa; experiment: Minimum inhibitory concentration of Levofloxacin in presence at a concentration of 10 ug/mL against PAM 1033.; format: functional
[31] = test system: Pseudomonas aeruginosa; experiment: Minimum inhibitory concentration of Levofloxacin in presence at a concentration of 2.50 ug/mL against PAM 1033.; format: functional
[32] = test system: Pseudomonas aeruginosa; experiment: Minimum inhibitory concentration of Levofloxacin in presence at a concentration of 20 ug/mL against PAM 1033.; format: functional
[33] = test system: Pseudomonas aeruginosa; experiment: Minimum inhibitory concentration of Levofloxacin in presence at a concentration of 40 ug/mL against PAM 1033.; format: functional
[34] = test system: Pseudomonas aeruginosa; experiment: Minimum inhibitory concentration of Levofloxacin in presence at a concentration of 50 ug/mL against PAM 1033.; format: functional
[35] = test system: Pseudomonas aeruginosa; experiment: Minimum Inhibitory concentration required to reduce the MIC of levofloxacin by 8-fold against PAM 1033.; format: functional
[36] = test system: Pseudomonas aeruginosa; experiment: Minimum inhibitory concentration of Levofloxacin in presence at a concentration of 0 ug/mL against PAM 1034.; format: functional
[37] = test system: Pseudomonas aeruginosa; experiment: Minimum inhibitory concentration of Levofloxacin in presence at a concentration of 1.25 ug/mL against PAM 1034.; format: functional
[38] = test system: Pseudomonas aeruginosa; experiment: Minimum inhibitory concentration of Levofloxacin in presence at a concentration of 10 ug/mL against PAM 1034.; format: functional
[39] = test system: Pseudomonas aeruginosa; experiment: Minimum inhibitory concentration of Levofloxacin in presence at a concentration of 2.5 ug/mL against PAM 1034.; format: functional
[40] = test system: Pseudomonas aeruginosa; experiment: Minimum inhibitory concentration of Levofloxacin in presence at a concentration of 20 ug/mL against PAM 1034.; format: functional
[41] = test system: Pseudomonas aeruginosa; experiment: Minimum inhibitory concentration of Levofloxacin in presence at a concentration of 5 ug/mL against PAM 1034.; format: functional
[42] = test system: Pseudomonas aeruginosa; experiment: Minimum Inhibitory concentration required to reduce the MIC of levofloxacin by 8-fold against PAM 1034.; format: functional
[43] = test system: Pseudomonas aeruginosa; experiment: Minimum inhibitory concentration of Levofloxacin in presence at a concentration of 40 ug/mL against PAM 1034.; format: functional

SMILES: NCCC[C@H](NC(=O)[C@@H](N)CCc1ccccc1)C(=O)Nc1ccc2ncccc2c1
- MIC [1]: > 512 µg/mL
- MPC8 [2]: 10 µg/mL
- VOLSYN [3]: 2060

SMILES: NCCC[C@H](NC(=O)[C@@H](N)CCc1ccccc1)C(=O)Nc1ccc2ccccc2c1
- MIC [4]: 128 µg/mL (≈ 306 µM)
- VOLSYN [5]: 2612
- MPC8 [2]: 2.5 µg/mL

SMILES: NCCC[C@H](NC(=O)[C@@H](N)Cc1ccc(F)cc1)C(=O)Nc1ccc2ccccc2c1
- MIC [4]: 512 µg/mL (≈ 1210 µM)
- VOLSYN [5]: 2343
- MPC8 [2]: 5 µg/mL

SMILES: N[C@@H](Cc1ccccc1)C(=O)N[C@@H](Cc1c[nH]cn1)C(=O)Nc1ccc2ccccc2c1 (H-Phe-His-βNA)
- MIC [4]: > 512 µg/mL
- VOLSYN [5]: 463
- MPC8 [2]: >40 µg/mL

SMILES: CN(C(=O)[C@@H](N)Cc1ccccc1)[C@@H](CCCN)C(=O)Nc1ccc2ccccc2c1
- MIC [4]: 256 µg/mL (≈ 612 µM)
- VOLSYN [5]: 2825
- MPC8 [2]: 5 µg/mL

SMILES: NCCC[C@H](NC(=O)[C@@H](N)Cc1ccccc1)C(=O)Nc1ccc2ccccc2c1
- MIC [4]: 512 µg/mL (≈ 1270 µM)
- VOLSYN [5]: 1760
- MPC8 [2]: 5 µg/mL

SMILES: NCCC[C@H](N)C(=O)Nc1ccc2ccccc2c1
- MIC [4]: > 512 µg/mL
- VOLSYN [5]: 183
- MPC8 [2]: >40 µg/mL

SMILES: NCCC[C@H](NC(=O)[C@@H](N)CCc1ccccc1)C(=O)Nc1cnc2ccccc2c1
- MIC [6]: 0.125 µg/mL (≈ 0.298 µM)
- MIC [7]: 0.25 µg/mL (≈ 0.596 µM)
- MIC [8]: 0.125 µg/mL (≈ 0.298 µM)
- MIC [9]: 2 µg/mL (≈ 4.77 µM)
- MIC [10]: 4 µg/mL (≈ 9.53 µM)
- MIC [11]: 4 µg/mL (≈ 9.53 µM)
- MIC [12]: 1 µg/mL (≈ 2.38 µM)
- MIC [13]: 2 µg/mL (≈ 4.77 µM)
- MIC [14]: 4 µg/mL (≈ 9.53 µM)
- MIC [15]: 0.06 µg/mL (≈ 0.143 µM)
- MIC [16]: 0.06 µg/mL (≈ 0.143 µM)
- MIC [17]: 0.125 µg/mL (≈ 0.298 µM)
- MIC [18]: 0.5 µg/mL (≈ 1.19 µM)
- MIC [19]: 1 µg/mL (≈ 2.38 µM)
- MIC [20]: 0.5 µg/mL (≈ 1.19 µM)
- MIC [21]: 0.06 µg/mL (≈ 0.143 µM)
- MIC [22]: 0.06 µg/mL (≈ 0.143 µM)
- MIC [23]: 0.125 µg/mL (≈ 0.298 µM)
- MIC [24]: 0.06 µg/mL (≈ 0.143 µM)
- MIC [25]: 0.06 µg/mL (≈ 0.143 µM)
- MIC [26]: 0.125 µg/mL (≈ 0.298 µM)
- MIC [1]: > 512 µg/mL
- MPC8 [2]: 5 µg/mL
- MPC8 [27]: 2.5 µg/mL
- MPC8 [28]: 5 µg/mL
- VOLSYN [29]: 2590

SMILES: NCCCC[C@H](NC(=O)[C@@H](N)Cc1ccccc1)C(=O)Nc1ccc2ccccc2c1
- MIC [4]: > 512 µg/mL
- VOLSYN [5]: 1390
- MPC8 [2]: 10 µg/mL

SMILES: C[C@H](N)C(=O)N[C@@H](CCCN)C(=O)Nc1ccc2ccccc2c1 (H-Ala-[Orn]-βNA)
- MIC [4]: > 512 µg/mL
- VOLSYN [5]: 486
- MPC8 [2]: 40 µg/mL

SMILES: N=C(N)NCCC[C@H](NC(=O)[C@@H](N)Cc1ccccc1)C(=O)Nc1ccc2ccccc2c1 [PABETAN] (H-Phe-Arg-βNA)
- MIC [30]: 0.125 µg/mL (≈ 0.28 µM)
- MIC [31]: 2 µg/mL (≈ 4.48 µM)
- MIC [32]: 0.125 µg/mL (≈ 0.28 µM)
- MIC [33]: 0.125 µg/mL (≈ 0.28 µM)
- MIC [34]: 0.5 µg/mL (≈ 1.12 µM)
- MPC8 [35]: 5 µg/mL
- MIC [36]: 4 µg/mL (≈ 8.96 µM)
- MIC [37]: 4 µg/mL (≈ 8.96 µM)
- MIC [38]: 0.25 µg/mL (≈ 0.56 µM)
- MIC [39]: 4 µg/mL (≈ 8.96 µM)
- MIC [40]: 0.06 µg/mL (≈ 0.134 µM)
- MIC [41]: 1 µg/mL (≈ 2.24 µM)
- MPC8 [42]: 10 µg/mL
- MIC [6]: 0.5 µg/mL (≈ 1.12 µM)
- MIC [9]: 2 µg/mL (≈ 4.48 µM)
- MIC [10]: 4 µg/mL (≈ 8.96 µM)
- MIC [12]: 2 µg/mL (≈ 4.48 µM)
- MIC [13]: 4 µg/mL (≈ 8.96 µM)
- MIC [15]: 0.125 µg/mL (≈ 0.28 µM)
- MIC [18]: 1 µg/mL (≈ 2.24 µM)
- MIC [21]: 0.06 µg/mL (≈ 0.134 µM)
- MIC [24]: 0.06 µg/mL (≈ 0.134 µM)
- MIC [1]: > 512 µg/mL
- VOLSYN [5]: 1962
- MPC8 [2]: 10 µg/mL
- MIC [43]: 0.03 µg/mL (≈ 0.0672 µM)

SMILES: NCCC[C@H](NC(=O)[C@@H](N)CCc1ccccc1)C(=O)Nc1ccc2c(c1)CCC2
- MIC [1]: 256 µg/mL (≈ 627 µM)
- MPC8 [2]: 2.5 µg/mL
- VOLSYN [29]: 2220

SMILES: NCCC[C@H](NC(=O)[C@@H](N)CCc1ccccc1)C(=O)Nc1ccccc1
- MIC [1]: > 512 µg/mL
- MPC8 [2]: >40 µg/mL
- VOLSYN [3]: 906
